Reference: patent publication US7879826B2, “Derivatives of [2-(8,9-dioxo-2,6-diazabicyclo[5.2.0]non-1(7)-en-2-yl)alkyl]phosphonic acid and methods of making them” (Wyeth LLC, priority 2004, dated 2011)

Key:
[1] = system: PGE2-induced thermal hypersensitivity; test: Prostaglandin E2-induced thermal hypersensitivity (warm-water tail withdrawal); assay type: in vivo, Spraque-Dawley rats; conditions: rat, 10 mg/kg p.o., single dose; assessed 30 min after PGE2 injection
Experimental: Individually housed Spraque-Dawley rats had free access to rat chow and water. A 12-h light/12-h dark cycle was in effect (lights on from 6:00 am to 6:00 pm). Animal maintenance and research were conducted in accordance with the guidelines provided by the National Institutes of Health Committee on Laboratory Animal Resources. These subjects were used in the tests below.
The terminal 10 cm of the tail (rat) was placed into a thermos bottle containing water warmed to 38, 42, 46, 50 or 54° C. The latency in seconds for the animal to remove the tail from the water was used as a measure of nociception. […]
The ability of the compounds to reverse PGE2-induced thermal hypersensitivity was assessed using a single dose time-course procedure. […] sensitivity was assessed 30 min after PGE2 injection.
Data Analysis—The temperature that produced a half-maximal increase in the tail-withdrawal latency (i.e., T10) was calculated from each temperature-effect curve. The T10 was determined by interpolation from a line drawn between the point above and the point below 10 sec on the temperature-effect curve. […] Reversal of thermal hypersensitivity was defined as a return to baseline of the temperature-effect curve and the T10 value and was calculated according to the following equation: […]

In the case of `CCOC(=O)c1cccc(OP(=O)(CCN2CCCNc3c2c(=O)c3=O)Oc2cccc(C(=O)OCC)c2)c1` [Example 1, Diethyl 3,3′-[({2-[8,9-dioxo-2,6-diazabicyclo[5.2.0]non-1(7)-en-2-yl]ethyl}phosphoryl)bis(oxy)]dibenzoate], the “reversing PGE2-induced thermal hypersensitivity (% MPE)” value [1] is reported as 40% and the melting point is reported as 116 to 117 °C.
